≈ marks a conversion by molar mass, not a printed value.

One data set has as its system Candida krusei ATCC 6258. The experiment in a line: Antifungal activity (MIC, MFC) against C. krusei. The following applies: C. krusei ATCC 6258, '-' = No activity; for MFC / MIC: Pichia kudriavzevii, ATCC6258. Format: cell-based.
Data set [1] relates to Candida albicans ATCC 90028. The experiment in a line: Antifungal activity (MIC, MFC) against C. albicans. In kind it is cell-based. The following applies: C. albicans ATCC 90028, '-' = No activity; for MFC/MIC: fungicidal ≤ 4, fungistatic > 4; for MFC / MIC: Candida albicans, ATCC90028.
The nature of data set [2]: DPPH free radical scavenging activity. The settings on record: for IC50: DPPH radical scavenging. Here is the method: DPPH, the stable artificial free radicals, has been widely used for the measurement of free radical scavenging capacity of the compounds in ethanol and aqueous systems. Briefly, 2 mL DPPH solution (0.2 mM, in 95% ethanol) was incubated with 2 mL different concentrations of compounds solution. Then, the reaction mixture was shaken and incubated in the dark for 40 min at room temperature. The absorbance was immediately recorded at 517 nm against ethanol with a spectrophotometer (Metash, model UV-5200, Shanghai Xiwen Biotech. Co., Ltd, Shanghai, China). The DPPH free radical scavenging rate was calculated using the equation:DPPH scavenging activity (%) = A0 − A1/A0 × 100 where A0 was the absorbance of the control reaction (containing all reagents except the tested compound), and A1 was the absorbance of the test reaction (containing all reagents with the tested compound). The percentage of DPPH radical scavenging activity was plotted against the sample concentration to acquire the IC50 value, defined as the concentration of sample necessary to cause 50% inhibition. Radical scavenging activity (RSA) was calculated from the IC50 value as the equation: RSA = pIC50 = −lg[IC50]. The smaller the IC50 value, the larger is the RSA value and the higher is the antioxidant activity.
(DPPH is a stable violet radical that fades when it is reduced.)

Data set [3] can be described thus: Ferric reducing power assay (FRAP). The settings on record: relative to standard Trolox. Here is the method:
The FRAP assay was used to determine the AC of the products by the reduction of Fe(III) and Fe (II). Briefly, Fe(III) was reduced to Fe(II), and Fe(II) was mixed with TPTZ to form a blue complex with strong absorption peak at 593 nm at pH = 3.6 condition. Acetate buffer (pH = 3.6), TPTZ solution (10 mM, in 40 mM hydrochloric acid) and FeCl3 solution (20 mM, in water) were mixed in a ratio of 10:1:1 to prepare FRAP working solution. The products solution (0.5 mL) was mixed with 4.0 mL FRAP working solution, and reacted at 37 °C for 30 min in the dark, and the absorbance at 593 nm was immediately recorded with a spectrophotometer. The result was expressed as the equivalent amount of Trolox per mole of the samples (mol TE/mol).

Data set [4] has as its system Micrococccus luteus NCIMB 8166. The experiment in a line: Antimicrobial activity (MIC, MBC) against M. luteus. In kind it is cell-based. The settings on record: M. luteus NCIMB 8166, '-' = No activity.
The nature of data set [5]: Radical scavenging activity ABTS. The following applies: for IC50: ABTS radical scavenging. Here is the method:
The ABTS assay was performed as previously described by Tuberoso et al.. ABTS^+ radical was generated by oxidation of ABTS with potassium persulfate. The blue–green ABTS was produced through the reaction between 2 mM ABTS and […] potassium persulfate in water. The mixture was left to stand in the dark for 12 to 16 h before use. The ABTS solution was diluted with methanol to an absorbance of 0.700 ± 0.005 at 734 nm. Then 2 mL of diluted ABTS solution was mixed with 100 μL of samples and absorbance was measured after 1 min incubation at room temperature. A standard curve was obtained by using Trolox as standard solution. The results were expressed as μM Trolox equivalent.
The mixture of 7 mmol/L aqueous ABTS solution with 2.45 mmol/L potassium persulfate solution constitutes a stable ABTS^+ stock solution that was allowed to stand in the dark and at room temperature for 12 to 16 h before use. A 1 mL sample of the diluted ABTS solution (adjusted to 0.7 ± 0.02 at […]) was added to 10 μL of each product. The absorbance was determined after 6 min. The percentage inhibition of the ABTS˙ radical was calculated from the following equation:% inhibition = (Abscontrol − Abstest)/Abscontrol × 100
Abs control: the control absorbance.
Abs test: the absorbance of the test sample after 6 min.

Data set [6] is described as follows: Ferric reducing power assay (FRAP).
The test system of data set [7] is Escherichia coli ATCC 25922. The experiment in a line: Antimicrobial activity (MIC, MBC) against E. coli. Format: cell-based. The settings on record: E. coli ATCC 25922; '-' = No activity.
Data set [8] relates to Pseudomonas aeruginosa ATCC 27853. Description: Antimicrobial activity (MIC, MBC) against P. aeruginosa. In kind it is cell-based. The following applies: P. aeruginosa ATCC 27853, '-' = No activity.
Data set [9] deals with Staphylococcus aureus ATCC 25923. Description: Antimicrobial activity (MIC, MBC) against S. aureus. Format: cell-based. The following applies: S. aureus ATCC 25923; for MBC/MIC: bactericidal ≤ 4, bacteriostatic > 4; for MIC: Staphylococcus aureus, ATCC25923, '-' = No activity.

In the case of `CN1C(=O)CC2(C1=O)C(c1ccc(Cl)cc1)CN(C)C21c2ccccc2-c2nc3ccccc3nc21` (stereo not shown) [5e, Spiro [2,11″]indeno-[1,2b]-quinoxaline-spiro-[3,3′]-N-methylsuccinimide-4-(4-chlorophenyl)hexahydro-1H-pyrrolidines], the melting point (in general, the temperature, or range, at which the solid turns liquid) was 182 to 184 °C. In addition, in the data set with Candida krusei ATCC 6258, the MFC/MIC is reported as 1, the MFC (usually the smallest concentration meeting the test's criterion for killing the fungus) is 31.4 mM (≈ 15.6 mg/mL) and inhibition of growth (MIC) required 31.4 mM (≈ 15.6 mg/mL). In data set [1], the MFC/MIC turned out to be 1; the MFC was 62.9 mM (≈ 31.1 mg/mL); the MIC (as a rule, the lowest concentration that inhibits growth of the organism) was found to be 62.9 mM (≈ 31.1 mg/mL). For the same compound, in data set [2], it took 6.12 ± 0.01 µM to reach half-maximal inhibition (IC50). The “DPPH scavenging activity, fold better than Trolox” value in [2] (relative to standard Trolox) is given as 5.1 fold. Also, the “FRAP activity, fold higher than Trolox” value in data set [3] is reported as “about 6.5 fold”. The same compound returned an MBC/MIC in data set [4] of 1. Besides, the IC50 (usually the midpoint of a concentration-inhibition curve) in [5] turned out to be 12.2 ± 0.18 µM. In addition, in data set [5] (relative to standard Trolox), the “ABTS scavenging activity, fold higher than Trolox” value is about 8 fold. The compound also came in with an IC50 in data set [6] of 6.54 ± 0.18 µM. Also, the MBC/MIC in data set [7] is 2. The same compound had an MBC/MIC in data set [8] of 4. In [9], this compound gave an MBC/MIC of 16 and an MIC of 15.7 mM (≈ 7.78 mg/mL).
In turn, `CN1C(=O)CC2(C1=O)C(c1cccs1)CN(C)C21c2ccccc2-c2nc3ccccc3nc21` (stereo not shown) [5h, Spiro [2,11″]indeno-[1,2b]-quinoxaline-spiro-[3,3′]-N-methylsuccinimide-4-(4-thiophenyl)hexahydro-1H-pyrrolidines] came in with a melting point of 203 to 205 °C. In the data set on Candida krusei ATCC 6258, this compound showed an MFC/MIC of 1, an MFC of 66.7 mM (≈ 31.1 mg/mL) and an MIC of 66.7 mM (≈ 31.1 mg/mL). In data set [1], this compound came in with an MFC/MIC of 4 and an MIC of 66.7 mM (≈ 31.1 mg/mL). This compound registered an IC50 in data set [2] of 19.1 ± 0.23 µM. For the same compound, in data set [3], the “FRAP activity, fold higher than Trolox” value is given as “about 6.5 fold”. The same compound yielded an MBC/MIC in data set [4] of 1. The compound further had an IC50 in data set [5] of 18.04 ± 0.13 µM. Moreover, the IC50 in data set [6] was 6.32 ± 0.68 µM. In addition, the MBC/MIC in [7] was found to be 2. The MBC/MIC in data set [8] amounted to 2. In data set [9], this compound registered an MBC/MIC of 16 and an MIC of 33.3 mM (≈ 15.6 mg/mL).
The compound `CN1C(=O)CC2(C1=O)C(c1cccc(Cl)c1)CN(C)C21c2ccccc2-c2nc3ccccc3nc21` (stereo not shown) [5i, Spiro [2,11″]indeno-[1,2b]-quinoxaline-spiro-[3,3′]-N-methylsuccinimide-4-(3-chloro-phenyl)hexahydro-1H-pyrrolidines] yielded a melting point of 193 to 195 °C. In the data set with Candida krusei ATCC 6258, the MFC/MIC turned out to be 1, the MFC was found to be 31.4 mM (≈ 15.6 mg/mL) and the MIC came out at 31.4 mM (≈ 15.6 mg/mL). The same compound returned an IC50 in data set [2] of 7.8 ± 0.32 µM. Besides, the “FRAP activity, fold higher than Trolox” value in [3] is recorded as “about 6.5 fold”. This compound also had an MBC/MIC in [4] of 1. The midpoint of inhibition in data set [5], the IC50, lay at 11.4 ± 0.36 µM. Besides, the IC50 in data set [6] turned out to be 5.98 ± 0.52 µM. The same compound returned an MBC/MIC in [7] of 2. Moreover, the MBC/MIC in [8] worked out at 4. Besides, the MBC/MIC in data set [9] is reported as 4.
For the compound `COc1ccc(C2CN(C)C3(c4ccccc4-c4nc5ccccc5nc43)C23CC(=O)N(C)C3=O)cc1OC` (stereo not shown) [5j, Spiro [2,11″]indeno-[1,2b]-quinoxaline-spiro-[3,3′]-N-methylsuccinimide-4-(3,4-dimethoxyphenyl)hexahydro-1H-pyrrolidines], the melting point fell in the range of 211 to 213 °C. In the data set on Candida krusei ATCC 6258, the MFC/MIC came out at 1, the MFC stood at 59.8 mM (≈ 31.1 mg/mL) and the MIC came to 59.8 mM (≈ 31.1 mg/mL). The MFC/MIC in data set [1] came to 2. In addition, in data set [2], the IC50 is 19.2 ± 0.19 µM. This compound yielded an MBC/MIC in [4] of 2. This compound also returned an IC50 in data set [5] of 11.56 ± 0.05 µM. This compound also gave an IC50 in data set [6] of 5.98 ± 0.17 µM. This compound also came in with an MBC/MIC in data set [7] of 2. In addition, the MBC/MIC in data set [8] is listed as 2. In data set [9], this compound had an MBC/MIC of 32 and an MIC of 14.9 mM (≈ 7.78 mg/mL).
Regarding `CN1C(=O)CC2(C1=O)C(c1ccc(O)c(Br)c1)CN(C)C21c2ccccc2-c2nc3ccccc3nc21` (stereo not shown) [5l, Spiro [2,11″]indeno-[1,2b]-quinoxaline-spiro-[3,3′]-N-methylsuccinimide-4-(3-bromo-4-hydroxy-phenyl)hexahydro-1H-pyrrolidines], the melting point was 189 to 191 °C. In addition, in the data set on Candida krusei ATCC 6258, the MFC/MIC is 1, the MFC was 28 mM (≈ 15.6 mg/mL) and the MIC is 28 mM (≈ 15.6 mg/mL). In data set [1], this compound came in with an MFC/MIC of 8 and an MIC of 56.1 mM (≈ 31.1 mg/mL). For the same compound, in data set [2], the IC50 amounted to 15.3 ± 0.37 µM. This compound also yielded an MBC/MIC in [4] of 2. This compound also displayed a 50% inhibitory concentration (IC50) in data set [5] of 15.2 ± 0.31 µM. The concentration for half-maximal inhibition (IC50) in data set [6] stood at 3.26 ± 0.45 µM. The MBC/MIC in data set [7] is 2. The compound further yielded an MBC/MIC in data set [8] of 4. In data set [9], this compound registered an MBC/MIC of 16 and an MIC of 28 mM (≈ 15.6 mg/mL).
Turning to `CN1C(=O)CC2(C1=O)C(c1cc(Br)c(O)c(Br)c1)CN(C)C21c2ccccc2-c2nc3ccccc3nc21` (stereo not shown) [5m, Spiro [2,11″]indeno-[1,2b]-quinoxaline-spiro-[3,3′]-N-methylsuccinimide-4-(3,5-dibromo-4-hydroxyphenyl)hexahydro-1H-pyrrolidines], the melting point lay in the range of 214 to 216 °C. In the data set on Candida krusei ATCC 6258, this compound gave an MFC/MIC of 1, a minimum fungicidal concentration (MFC) of 49.1 mM (≈ 31.1 mg/mL) and an MIC of 49.1 mM (≈ 31.1 mg/mL). In data set [1], this compound gave an MFC/MIC of 1, an MFC of 98.2 mM (≈ 62.3 mg/mL) and an MIC of 98.2 mM (≈ 62.3 mg/mL). Also, the IC50 in [2] was found to be 47.29 ± 0.06 µM. 98.2 mM (≈ 62.3 mg/mL) was the least that counted as inhibitory in data set [4] (Micrococcus luteus, NCIMB8166) (MIC). Also, the IC50 in data set [5] stood at 14.6 ± 0.26 µM. Half-maximal inhibition in data set [6] (IC50) was put at 7.38 ± 0.14 µM. This compound also returned an MBC/MIC in data set [7] of 1. The same compound showed an MBC/MIC in data set [8] of 4. This compound also displayed an MIC in [8] (Pseudomonas aeruginosa, ATCC27853) of 98.2 mM (≈ 62.3 mg/mL). In [9], this compound came in with an MBC/MIC of 8 and an MIC of 24.5 mM (≈ 15.6 mg/mL).
